The numbers were not newly measured in patent publication US20200376001A1, “USE OF ANDROGEN FOR TREATING GASTROINTESTINAL DISORDERS” (priority 2012, published 2020), which cites them from elsewhere.

The test system of data set [1] is Sex Hormone Binding Globulin (SHBG). The following applies: for decrease of SHBG (serum concentration): serum SHBG in the body after administration of synthetic androgen.
For data set [2], the target named is T1, Sex Hormone Binding Globulin (SHBG) (Homo sapiens, UniProt P04278).
T1 sequence (P04278 30-402): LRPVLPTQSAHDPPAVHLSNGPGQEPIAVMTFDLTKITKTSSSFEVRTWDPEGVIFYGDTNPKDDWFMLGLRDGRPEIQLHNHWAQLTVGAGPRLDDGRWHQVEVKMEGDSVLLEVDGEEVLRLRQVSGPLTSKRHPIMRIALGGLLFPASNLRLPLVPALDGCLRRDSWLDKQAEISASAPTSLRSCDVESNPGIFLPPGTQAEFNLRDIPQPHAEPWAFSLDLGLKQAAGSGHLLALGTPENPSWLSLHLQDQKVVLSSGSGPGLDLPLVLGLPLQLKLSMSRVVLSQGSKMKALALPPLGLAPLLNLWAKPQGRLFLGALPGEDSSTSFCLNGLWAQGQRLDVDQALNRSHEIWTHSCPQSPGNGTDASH
The settings on record: greater than that of testosterone.

For data set [3] the following is noted: compared with danazol.

Read-outs that look alike come from different tables or passages of the source.

As for `C#C[C@]1(O)CC[C@H]2[C@@H]3CCC4=Cc5oncc5C[C@]4(C)[C@H]3CC[C@@]21C` [danazol], the “decrease of SHBG (serum concentration)” value in data set [1] is 80%; in data set [1] (listed as Danazol) it was “does this as well”.
As for `C[C@]12CC[C@H]3[C@@H](CCC4=CC(=O)CC[C@@H]43)[C@@H]1CC[C@@H]2O` [Nandrolone, nandrolone], in data set [2], the “affinity for SHBG relative to testosterone” value is on record as “about three”.
For the molecule `C[C@]12Cc3c[nH]nc3C[C@@H]1CC[C@@H]1[C@@H]2CC[C@@]2(C)[C@H]1CC[C@]2(C)O` [stanozolol], the “potency mg for mg relative to danazol” value in data set [1] (SHBG reduction, relative to danazol) is given as 100 times. For the same molecule, in data set [1], the “decrease of SHBG (serum concentration)” value is listed as 80%. In addition, the “side effects and hirsutism” value in data set [3] was “reduces side effects and hirsutism caused by danazol”.
